Test results reported in US11498899B2, “Nitrone herbicides” (FMC Corporation, priority 2016, dated 2022).

How the values were obtained:
[1] = system: barnyardgrass (Echinochloa crus-galli); assay: Test B flooded paddy test, visual rating 0-100; settings: Flood, 250 g ai/ha, applied to paddy water, rated after 13 to 15 days
[2] = system: pigweed (Amaranthus retroflexus); assay: Test A preemergence, visual injury rating 0-100; type: in vivo
[3] = system: kochia (Kochia scoparia); assay: Test A preemergence, visual injury rating 0-100; type: in vivo
[4] = system: ragweed (common ragweed, Ambrosia elatior); assay: Test A preemergence, visual injury rating 0-100; type: in vivo
[5] = system: foxtail, giant (giant foxtail, Setaria faberii); assay: Test A preemergence, visual injury rating 0-100; type: in vivo
[6] = system: ryegrass, Italian (Italian ryegrass, Lolium multiflorum); assay: Test A preemergence, visual injury rating 0-100; type: in vivo
[7] = system: pigweed (Amaranthus retroflexus); assay: Test A postemergence, visual injury rating 0-100; type: in vivo; settings: 0 to 100 scale
[8] = system: kochia (Kochia scoparia); assay: Test A postemergence, visual injury rating 0-100; type: in vivo; settings: 0 to 100 scale
[9] = system: ragweed (common ragweed, Ambrosia elatior); assay: Test A postemergence, visual injury rating 0-100; type: in vivo; settings: 0 to 100 scale
[10] = system: foxtail, giant (giant foxtail, Setaria faberii); assay: Test A postemergence, visual injury rating 0-100; type: in vivo; settings: 0 to 100 scale
[11] = system: wheat (Triticum aestivum); assay: Test A postemergence, visual injury rating 0-100; type: in vivo; settings: 0 to 100 scale
[12] = system: barnyardgrass (Echinochloa crus-galli); assay: Test A postemergence, visual injury rating 0-100; type: in vivo; settings: 0 to 100 scale
[13] = system: galium (catchweed bedstraw, Galium aparine); assay: Test A postemergence, visual injury rating 0-100; type: in vivo; settings: 0 to 100 scale
[14] = system: corn (Zea mays); assay: Test A postemergence, visual injury rating 0-100; type: in vivo; settings: 0 to 100 scale
[15] = system: blackgrass (Alopecurus myosuroides); assay: Test A postemergence, visual injury rating 0-100; type: in vivo; settings: 0 to 100 scale
[16] = system: ryegrass, Italian (Italian ryegrass, Lolium multiflorum); assay: Test A postemergence, visual injury rating 0-100; type: in vivo; settings: 0 to 100 scale
[17] = system: ducksalad (Heteranthera limosa); assay: Test B flooded paddy test, visual rating 0-100; settings: Flood, 250 g ai/ha, applied to paddy water, rated after 13 to 15 days
[18] = system: rice (Oryza sativa); assay: Test B flooded paddy test, visual rating 0-100 (0 no effect, 100 complete control); settings: Flood, 250 g ai/ha, applied to paddy water, rated after 13 to 15 days
[19] = system: barnyardgrass (Echinochloa crus-galli); assay: Test A preemergence, visual injury rating 0-100 (0 no effect, 100 complete control); type: in vivo
[20] = 125 g ai/ha, 0 to 100 scale (0 no effect, 100 complete control), approx. 10 days

SMILES	Barnyardgrass plant response rating (0 to 100 scale) [1]	Pigweed plant response rating ([7]; 125 g ai/ha)	Pigweed plant response rating ([7]; 500 g ai/ha)	Kochia plant response rating ([8]; 125 g ai/ha)	Kochia plant response rating ([8]; 500 g ai/ha)	Ragweed plant response rating ([9]; 125 g ai/ha)	Ragweed plant response rating ([9]; 500 g ai/ha)	Foxtail, Giant plant response rating ([10]; 125 g ai/ha)	Foxtail, Giant plant response rating ([10]; 500 g ai/ha)	Wheat plant response rating ([11]; 125 g ai/ha)	Wheat plant response rating ([11]; 500 g ai/ha)	Barnyardgrass plant response rating ([12]; 125 g ai/ha)	Barnyardgrass plant response rating ([12]; 500 g ai/ha)	Galium plant response rating ([13]; 125 g ai/ha)	Galium plant response rating ([13]; 500 g ai/ha)	Corn plant response rating ([14]; 125 g ai/ha)	Corn plant response rating ([14]; 500 g ai/ha)	Blackgrass plant response rating ([15]; 125 g ai/ha)	Blackgrass plant response rating ([15]; 500 g ai/ha)	Ryegrass, Italian plant response rating ([16]; 125 g ai/ha)	also measured
CC(C)C1=[N+]([O-])C(C(=O)Nc2cccc(F)c2F)C(c2ccc(C(F)(F)F)cc2)C1 (racemic) [Compound 122]	0	0	0	0	0	0	0	0	0	0	0	0	0	0	0	0	0	0	0	0	Pigweed plant response rating [2, 20]: 0; Pigweed plant response rating (0 to 100 scale) ([2]; 500 g ai/ha): 0; Kochia plant response rating [3, 20]: 0; Kochia plant response rating (0 to 100 scale) ([3]; 500 g ai/ha): 0; Ragweed plant response rating [4, 20]: 0; Ragweed plant response rating (0 to 100 scale) ([4]; 500 g ai/ha): 0; Foxtail, Giant plant response rating [5, 20]: 0; Foxtail, Giant plant response rating (0 to 100 scale) ([5]; 500 g ai/ha): 0; Ryegrass, Italian plant response rating [6, 20]: 0; Ryegrass, Italian plant response rating (0 to 100 scale) ([6]; 500 g ai/ha): 0; Ryegrass, Italian plant response rating ([16]; 500 g ai/ha): 0; Ducksalad plant response rating (0 to 100 scale) [17]: 0; Rice plant response rating (0 to 100 scale) [18]: 0; Barnyardgrass plant response rating [19, 20]: 0; Barnyardgrass plant response rating (0 to 100 scale) ([19]; 500 g ai/ha): 0
CC1=[N+]([O-])[C@@H](C(=O)Nc2cccc(F)c2F)[C@H](c2ccc(C(F)(F)F)cc2)C1 (relative stereo) [Compound 2, trans-N-(2,3-difluorophenyl)-3,4-dihydro-5-methyl-3-[4-(trifluoromethyl)phenyl]-2H-pyrrole-2-carboxamide 1-oxide]	70	40	80	40	80	30	60	90	90	40	70	70	90	70	70	40	80	20	90	60	Pigweed plant response rating (0 to 100 scale) ([2]; 125 g ai/ha): 90; Pigweed plant response rating ([2]; 500 g ai/ha, 0 to 100 scale): 90; Kochia plant response rating (0 to 100 scale) ([3]; 125 g ai/ha): 90; Kochia plant response rating ([3]; 500 g ai/ha, 0 to 100 scale): 80; Ragweed plant response rating (0 to 100 scale) ([4]; 125 g ai/ha): 40; Ragweed plant response rating ([4]; 500 g ai/ha, 0 to 100 scale): 90; Foxtail, Giant plant response rating (0 to 100 scale) ([5]; 125 g ai/ha): 100; Foxtail, Giant plant response rating ([5]; 500 g ai/ha, 0 to 100 scale): 100; Ryegrass, Italian plant response rating (0 to 100 scale) ([6]; 125 g ai/ha): 30; Ryegrass, Italian plant response rating ([6]; 500 g ai/ha, 0 to 100 scale): 50; Ryegrass, Italian plant response rating ([16]; 500 g ai/ha): 70; Ducksalad plant response rating (0 to 100 scale) [17]: 90; Rice plant response rating (0 to 100 scale) [18]: 0; Barnyardgrass plant response rating (0 to 100 scale) ([19]; 125 g ai/ha): 90; Barnyardgrass plant response rating ([19]; 500 g ai/ha, 0 to 100 scale): 100
CC1=[N+]([O-])[C@@H](C(=O)Nc2cccc(F)c2F)[C@H](c2ccc(Cl)cc2)C1 (relative stereo) [Compound 5, trans-3-(4-chlorophenyl)-N-(2,3-difluorophenyl)-3,4-dihydro-5-methyl-2H-pyrrole-2-carboxamide 1-oxide]	65	40	70	60	70	30	70	60	70	20	80	90	90	50	80	0	50	20	50	0	Pigweed plant response rating (0 to 100 scale) ([2]; 125 g ai/ha): 50; Pigweed plant response rating ([2]; 500 g ai/ha, 0 to 100 scale): 90; Kochia plant response rating (0 to 100 scale) ([3]; 125 g ai/ha): 10; Kochia plant response rating ([3]; 500 g ai/ha, 0 to 100 scale): 60; Ragweed plant response rating (0 to 100 scale) ([4]; 125 g ai/ha): 50; Ragweed plant response rating ([4]; 500 g ai/ha, 0 to 100 scale): 90; Foxtail, Giant plant response rating (0 to 100 scale) ([5]; 125 g ai/ha): 100; Foxtail, Giant plant response rating ([5]; 500 g ai/ha, 0 to 100 scale): 100; Ryegrass, Italian plant response rating (0 to 100 scale) ([6]; 125 g ai/ha): 10; Ryegrass, Italian plant response rating ([6]; 500 g ai/ha, 0 to 100 scale): 80; Ryegrass, Italian plant response rating ([16]; 500 g ai/ha): 30; Ducksalad plant response rating (0 to 100 scale) [17]: 100; Rice plant response rating (0 to 100 scale) [18]: 0; Barnyardgrass plant response rating (0 to 100 scale) ([19]; 125 g ai/ha): 100; Barnyardgrass plant response rating ([19]; 500 g ai/ha, 0 to 100 scale): 100
CC1=[N+]([O-])[C@H](C(=O)Nc2cccc(F)c2F)[C@@H](c2ccc(C)cc2)C1 (relative stereo) [Compound 6, rel-(2S,3R)—N-(2,3-Difluorophenyl)-3,4-dihydro-5-methyl-3-(4-methylphenyl)-2H-pyrrole-2-carboxamide 1-oxide]	85	40	50	30	70	0	60	90	90	60	80	90	90	50	70	30	80	50	80	50	Pigweed plant response rating (0 to 100 scale) ([2]; 125 g ai/ha): 80; Pigweed plant response rating ([2]; 500 g ai/ha, 0 to 100 scale): 90; Kochia plant response rating (0 to 100 scale) ([3]; 125 g ai/ha): 70; Kochia plant response rating ([3]; 500 g ai/ha, 0 to 100 scale): 70; Ragweed plant response rating (0 to 100 scale) ([4]; 125 g ai/ha): 40; Ragweed plant response rating ([4]; 500 g ai/ha, 0 to 100 scale): 100; Foxtail, Giant plant response rating (0 to 100 scale) ([5]; 125 g ai/ha): 100; Foxtail, Giant plant response rating ([5]; 500 g ai/ha, 0 to 100 scale): 100; Ryegrass, Italian plant response rating (0 to 100 scale) ([6]; 125 g ai/ha): 80; Ryegrass, Italian plant response rating ([6]; 500 g ai/ha, 0 to 100 scale): 90; Ryegrass, Italian plant response rating ([16]; 500 g ai/ha): 60; Ducksalad plant response rating (0 to 100 scale) [17]: 100; Rice plant response rating (0 to 100 scale) [18]: 0; Barnyardgrass plant response rating (0 to 100 scale) ([19]; 125 g ai/ha): 100; Barnyardgrass plant response rating ([19]; 500 g ai/ha, 0 to 100 scale): 100
